Measured values as given in paper PMC9301488, “Expression, Characterization, Fermentation, Immobilization, and Application of a Novel Esterase Est804 From Metagenomic Library in Pesticide Degradation” (Frontiers in Microbiology, 2022).

Test system: T1, Est804
T1 construct: expressed in E. coli BL21(DE3); lysate supernatant called crude, His-tag purification described for SDS-PAGE
Assay: release of p-nitrophenol at […] nm, Lineweaver-Burk plot
Assay type: biochemical, soil metagenome
Details: free enzyme; 0.0-5.0 mM substrate; Britton-Robinson buffer pH 6.8, 40 °C (standard conditions); crude lysate supernatant mentioned, purity of the kinetic sample not clear

CC(=O)Oc1ccc([N+](=O)[O-])cc1 [ρ-nitrophenyl acetate]
Km: 613 µM
